Data from patent US11166942B2 (PRAXIS BIOTECH LLC, priority 2018, dated 2021).
Where two headings read alike, the source gives them in different places.

Columns and labels:
ATF4 = ATF4 expression inhibition assay (ATF4 5'UTR luciferase reporter, Tg-stressed HEK293T cells); assay type: cell-based, human; conditions: Homo sapiens, HEK-293T, 3 h; for inhibition at 0.1 µM: read-out: % ATF4 inhibition at 100 nM; for IC50: read-out: ATF4 inhbition IC50; for inhibition at 1 µM: read-out: % ATF4 inhibition at 1 μM
Outline: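 HEK293T stably expressing luciferase fused downstream of human full-length ATF4 5′UTR, stressed with 100 nM thapsigargin plus compound (100 nM or 1 μM; IC50 series 0.1 nM to 1 μM) for 3 h at 37° C. Luminescence normalized to Tg alone (0%) and untreated cells (100% inhibition).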

HEK293T cells = test: Recovery of protein translation in stressed HEK293T cells; assay type: cell-based, human; conditions: 1 μM (FIG. 4)
Text: Despite the great potency on the inhibition of ATF4 expression, ISRIB is not able to completely restore protein synthesis when the global protein translation is decreased under these stress conditions. […] Compound 4 has a great potency for the inhibition of ATF4 expression under stress condition (FIG. 3) and is much better at restoring global protein translation under ER stress-mediated repression and going beyond a 100% recovery (FIG. 4).

[1] = test system: Chinese hamster ovary (CHO) cells; test: Protein translation assay (puromycin labelling, CHO cells); assay type: cell-based; conditions: media alone = 100%; for activity at 1 µM: Cricetulus griseus, CHO
Experimental: Chinese hamster ovary (CHO) cells were maintained at 37° C. and 5% CO2 in Dulbecco's Modified Eagle's Media (DMEM) supplemented with 10% fetal bovine serum, 2 mM L-glutamine, 100 U/ml penicillin, and 100 μg/ml streptomycin. After reaching 80% of confluence, cells were detached and seeded on 6 well plates in complete media, allowed to recover overnight and treated for 2 hours with 1 μM of the test compound (to assess protein synthesis levels in unstressed condition), or for 1 hour with 100 nM or 1 μM of the test compound and then co-treated with 300 nM Tg and 100 nM or 1 μM of the test compound (to assess the recovery of protein synthesis in a stressed condition). Cells treated with Tg alone were used as controls.
After the 2 hours treatments, media were replaced by adding 10 μg/ml puromycin (Sigma Aldrich #P8833) in complete media for 30 min. Media were removed and cells were lysed with SDS-PAGE lysis buffer. Lysates were transferred to 1.5 ml tubes and sonicated for 3 min and total protein amount were quantified using BCA Protein Assay Kit (Pierce). Equal amount of protein (30 μg) was loaded on SDS-PAGE gels. Proteins were transferred onto 0.2 μm PVDF membranes (BioRad) and probed with primary antibodies diluted in Tris-buffered saline supplemented with 0.1% Tween 20 (Merck #S6996184 505) and 3% bovine serum albumin (Rockland #BSA-50).
Puromycin (12D10) (Merck #MABE343) and β-actin (Sigma Aldrich #A5441) antibodies were used as primary antibody. A HRP-conjugated secondary antibody (Rockland) was employed to detect immune-reactive bands using enhanced chemiluminescence (ECL Western Blotting Substrate, Pierce). Quantification of protein bands was done by densitometry using ImageJ software.
Percent increase of protein synthesis in unstressed cells (without Tg treatment) in the presence of media alone or certain test compounds is shown in Table 3 The percentage levels were normalized to the media alone condition, which correspond to 100% protein synthesis.
Percent recovery of protein synthesis in stressed cells (with Tg treatment) due to the test compounds at 100 nM or 1 μM is also shown in Table 3. The levels were normalized to the media alone and to Tg alone conditions, which correspond to 100% and 0% respectively.

[2] = 100 nM test compound, 100 nM thapsigargin, 3 hours, HEK293T ATF4 luciferase reporter
[3] = 100 nM thapsigargin, 3 hours, HEK293T ATF4 luciferase reporter
[4] = 1 μM test compound, 100 nM thapsigargin, 3 hours, HEK293T ATF4 luciferase reporter
[5] = 2 h, unstressed CHO cells, 1 μM, 2 hours, read-out: % Protein synthesis in unstressed cells (1 μM test compound)
[6] = CHO cells stressed with 300 nM Tg, 1 μM compound, Tg alone = 0%, read-out: % Recovery of protein expression (1 μM test compound)

SMILES	inhibition at 0.1 µM (ATF4; [2]) [%]	IC50 (ATF4; [3]) [nM]	inhibition at 1 µM (ATF4; [4]) [%]	percent recovery of protein translation in stressed cells (HEK293T cells) [%]	% Recovery of protein expression (100 nM test compound) ([1]; CHO cells stressed with 300 nM Tg, 100 nM compound, Tg alone = 0%) [%]	activity at 1 µM [1, 5] [%]	activity at 1 µM [1, 6] [%]	inhibition at 0.1 µM (ATF4) [%]	inhibition at 1 µM (ATF4) [%]	IC50 (ATF4) [nM]
O=C(COc1ccc(Cl)c(F)c1)NC1CCN(NC(=O)COc2ccc(Cl)c(F)c2)CC1 [Compound 4, N,N′-(piperidine-1,4-diyl)bis(2-(4-chloro-3-fluorophenoxy)acetamide)]	93.2	3.1	94.7	> 100	83.5	105	169			
O=C(NN1CCC(NC[C@@H](O)COc2ccc(Cl)c(F)c2)CC1)c1cc2cc(Cl)ccc2o1 [Compound 54]						99.7	69.9	87.2	97.2	1.6
O=C(NN1CCC(NC[C@H](O)COc2ccc(Cl)c(F)c2)CC1)c1cc2cc(Cl)ccc2o1 [Compound 55, (S)-5-chloro-N-(4-((3-(4-chloro-3-fluorophenoxy)-2-hydroxypropyl)amino)piperidin-1-yl)benzofuran-2-carboxamide]						110	49.6	58.1	80.5	102
O=C(NN1CCC(NC[C@@H](O)COc2ccc(Cl)c(F)c2)CC1)c1ccc2cc(Cl)ccc2n1 [Compound 56, (R)-6-chloro-N-(4-((3-(4-chloro-3-fluorophenoxy)-2-hydroxypropyl)amino)piperidin-1-yl)quinoline-2-carboxamide]	63.4	71.7	75.6			155	46.1			
O=C(NN1CCC(NC[C@H](O)COc2ccc(Cl)c(F)c2)CC1)c1ccc2cc(Cl)ccc2n1 [Compound 57, (S)-6-chloro-N-(4-((3-(4-chloro-3-fluorophenoxy)-2-hydroxypropyl)amino)piperidin-1-yl)quinoline-2-carboxamide]	25.9	> 10000	39.8			139	69.6			
O=C(NN1CCN(C[C@H](O)COc2ccc(Cl)c(F)c2)CC1)c1ccc2cc(Cl)ccc2n1 [Compound 59, (S)-6-chloro-N-(4-(3-(4-chloro-3-fluorophenoxy)-2-hydroxypropyl)piperazin-1-yl)quinoline-2-carboxamide]	38.8	570	66			180	98.7			
O=C(NN1CCN(C[C@@H](O)COc2ccc(Cl)c(F)c2)CC1)c1ccc2cc(Cl)ccc2c1 [Compound 60, (R)-6-chloro-N-(4-(3-(4-chloro-3-fluorophenoxy)-2-hydroxypropyl)piperazin-1-yl)-2-naphthamide]	92.6	1.5	94.6			140	126			
O=C(NN1CCN(C[C@H](O)COc2ccc(Cl)c(F)c2)CC1)c1ccc2cc(Cl)ccc2c1 [Compound 61, (S)-6-chloro-N-(4-(3-(4-chloro-3-fluorophenoxy)-2-hydroxypropyl)piperazin-1-yl)-2-naphthamide]	72.4	29.4	86.6			195	171			
O=C(NN1CCN(C[C@@H](O)COc2ccc(Cl)c(F)c2)CC1)c1ccc(OC(F)(F)F)cc1 [Compound 62, (R)-N-(4-(3-(4-chloro-3-fluorophenoxy)-2-hydroxypropyl)piperazin-1-yl)-4-(trifluoromethoxy)benzamide]	85.9	< 100	88.8			99.5	40.2			
O=C(NN1CCN(C[C@@H](O)COc2ccc(Cl)c(F)c2)CC1)c1ccc(Cl)cc1 [Compound 63, (R)-4-chloro-N-(4-(3-(4-chloro-3-fluorophenoxy)-2-hydroxypropyl)piperazin-1-yl)benzamide]	14.8	< 1000	84.6			107	16.4			
O=C(NN1CCN(C[C@@H](O)COc2ccc(Cl)c(F)c2)CC1)c1ccc(Cl)cn1 [Compound 64, (R)-5-chloro-N-(4-(3-(4-chloro-3-fluorophenoxy)-2-hydroxypropyl)piperazin-1-yl)picolinamide]	20		56.6			109	34.7			
O=C(NN1CCN(C[C@@H](O)COc2ccc(Cl)c(F)c2)CC1)c1ccc(C(F)(F)F)cn1 [Compound 65, (R)-N-(4-(3-(4-chloro-3-fluorophenoxy)-2-hydroxypropyl)piperazin-1-yl)-5-(trifluoromethyl)picolinamide]	22.6	< 1000	80.5			99	51.1			
O=C(NN1CCN(C[C@@H](O)COc2ccc(Cl)c(F)c2)CC1)c1cnc(C(F)F)cn1 [Compound 66, (R)-N-(4-(3-(4-chloro-3-fluorophenoxy)-2-hydroxypropyl)piperazin-1-yl)-5-(difluoromethyl)pyrazine-2-carboxamide]	0	> 1000	0			84.9	17.6			
N#Cc1ccc(C(=O)NN2CCN(C[C@@H](O)COc3ccc(Cl)c(F)c3)CC2)nc1 [Compound 67, (R)-N-(4-(3-(4-chloro-3-fluorophenoxy)-2-hydroxypropyl)piperazin-1-yl)-5-cyanopicolinamide]	3.6	> 1000	27.8			80	27.6			
O=C(NN1CCC(NC[C@@H](O)COc2ccc(Cl)c(F)c2)CC1)c1ccc(Cl)cn1 [Compound 68, (R)-5-chloro-N-(4-((3-(4-chloro-3-fluorophenoxy)-2-hydroxypropyl)amino)piperidin-1-yl)picolinamide]	9		50.9			81.8	49.3			
COc1ccc2oc(C(=O)NN3CCC(NC[C@@H](O)COc4ccc(Cl)c(F)c4)CC3)cc2c1 [Compound 69, (R)-N-(4-((3-(4-chloro-3-fluorophenoxy)-2-hydroxypropyl)amino)piperidin-1-yl)-5-methoxybenzofuran-2-carboxamide]	37	< 1000	78.1			129	43.1			
